From US9663496B2, “AMPK-activating heterocyclic compounds and methods for using the same” (Rigel Pharmaceuticals, Inc., priority 2010, dated 2017)

Target: AMPK
Assay: AMPK activation, enzyme-linked immunosorbent assay
Assay type: biochemical
Conditions: EC50 for AMPK activation, ELISA
In short: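 Test compounds were added, and kinase activation was then detected by immunoassay following established kit procedures.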

Row | SMILES | EC50 [µM]
1 | COc1ccc(C(=O)C2CCN(C(=O)c3ccc(C(=O)Nc4ccc(S(=O)(=O)c5ccc(F)cc5)nc4)cn3)CC2)cc1 [Compound 467, N-(6-(4-fluorophenylsulfonyl)pyridin-3-yl)-6-(4-(4-methoxybenzoyl)piperidine-1-carbonyl)nicotinamide] | 1 to 5
2 | N#Cc1ccc(CN2CCC(NC(=O)c3ccc(C(=O)N4CCC(S(=O)(=O)c5ccc(F)cc5)CC4)nc3)CC2)cc1 [Compound 471, N-(1-(4-cyanobenzyl)piperidin-4-yl)-6-(4-(4-fluorophenylsulfonyl)piperidine-1-carbonyl)nicotinamide] | 1 to 5
3 | N#Cc1ccc(Oc2ccc(NC(=O)c3ccc(C(=O)N4CCC(S(=O)(=O)c5ccc(F)cc5)CC4)nc3)cn2)cc1 [Compound 472, N-(6-(4-cyanophenoxy)pyridin-3-yl)-6-(4-(4-fluorophenylsulfonyl)piperidine-1-carbonyl)nicotinamide] | 1 to 5
4 | CC(=O)c1ccc(Oc2ccc(NC(=O)c3ccc(C(=O)N4CCC(S(=O)(=O)c5ccc(F)cc5)CC4)nc3)cn2)cc1 [Compound 473, N-(6-(4-acetylphenoxy)pyridin-3-yl)-6-(4-(4-fluorophenylsulfonyl)piperidine-1-carbonyl)nicotinamide] | 1 to 5
5 | COc1ccc(CN2CCC(NC(=O)c3ccc(C(=O)N4CCC(S(=O)(=O)c5ccc(F)cc5)CC4)nc3)CC2)cc1 [Compound 474, 6-(4-(4-fluorophenylsulfonyl)piperidine-1-carbonyl)-N-(1-(4-methoxybenzyl)piperidin-4-yl)nicotinamide] | 1 to 5
6 | COc1cccc(CN2CCC(NC(=O)c3ccc(C(=O)N4CCC(S(=O)(=O)c5ccc(F)cc5)CC4)nc3)CC2)c1 [Compound 475, 6-(4-(4-fluorophenylsulfonyl)piperidine-1-carbonyl)-N-(1-(3-methoxybenzyl)piperidin-4-yl)nicotinamide] | 1 to 5
7 | COc1ccc(C(=O)C2CCN(C(=O)c3ccc(C(=O)N(C)C4CCN(Cc5ccc(C#N)cc5)CC4)cn3)CC2)cc1 [Compound 482, N-(1-(4-cyanobenzyl)piperidin-4-yl)-6-(4-(4-methoxybenzoyl)piperidine-1-carbonyl)-N-methylnicotinamide] | < 0.5
8 | COc1ccc(C(=O)C2CCN(C(=O)c3ccc(C(=O)N(C)C4CCN(Cc5ccc(OC(F)(F)F)cc5)CC4)cn3)CC2)cc1 [Compound 483, 6-(4-(4-methoxybenzoyl)piperidine-1-carbonyl)-N-methyl-N-(1-(4-(trifluoromethoxy)benzyl)piperidin-4-yl)nicotinamide] | < 0.5
9 | COc1ccc(CN2CCC(N(C)C(=O)c3ccc(C(=O)N4CCC(C(=O)c5ccc(OC)cc5)CC4)nc3)CC2)cc1 [Compound 484, 6-(4-(4-methoxybenzoyl)piperidine-1-carbonyl)-N-(1-(4-methoxybenzyl)piperidin-4-yl)-N-methylnicotinamide] | < 0.5
10 | CC(=O)c1ccc(Oc2ccc(NC(=O)c3ccc(C(=O)N4CCC(Oc5ccc(S(C)(=O)=O)cc5)CC4)nc3)cn2)cc1 [Compound 485, N-(6-(4-acetylphenoxy)pyridin-3-yl)-6-(4-(4-(methylsulfonyl)phenoxy)piperidine-1-carbonyl)nicotinamide] | < 0.5
11 | CC(=O)c1ccc(Oc2ccc(NC(=O)c3ccc(C(=O)N4CCC(Oc5ccc(S(=O)(=O)C6CC6)cc5)CC4)nc3)cn2)cc1 [Compound 486, N-(6-(4-acetylphenoxy)pyridin-3-yl)-6-(4-(4-(cyclopropylsulfonyl)phenoxy)piperidine-1-carbonyl)nicotinamide] | < 0.5
12 | CC(=O)c1ccc(Oc2ccc(NC(=O)c3ccc(C(=O)N4CCN(c5ccc(S(C)(=O)=O)cc5)CC4)nc3)cn2)cc1 [Compound 487, N-(6-(4-acetylphenoxy)pyridin-3-yl)-6-(4-(4-(methylsulfonyl)phenyl)piperazine-1-carbonyl)nicotinamide] | 1 to 5
13 | CC(=O)c1ccc(Oc2ccc(NC(=O)c3ccc(C(=O)N4CCC(Oc5ccc(C(=O)N(C)C)cc5)CC4)nc3)cn2)cc1 [Compound 488, N-(6-(4-acetylphenoxy)pyridin-3-yl)-6-(4-(4-(dimethylcarbamoyl)phenoxy)piperidine-1-carbonyl)nicotinamide] | < 0.5
14 | CC(=O)c1ccc(Oc2ccc(NC(=O)c3ccc(C(=O)N4CCN(c5ccc(S(=O)(=O)C(C)C)cc5)CC4)nc3)cn2)cc1 [Compound 489, N-(6-(4-acetylphenoxy)pyridin-3-yl)-6-(4-(4-(isopropylsulfonyl)phenyl)piperazine-1-carbonyl)nicotinamide] | < 0.5
15 | COc1ccc(C(=O)C2CCN(C(=O)c3ccc(C(=O)NC4CCN(Cc5ccc(C(=O)N(C)C)cc5)CC4)cn3)CC2)cc1 [Compound 490, N-(1-(4-(dimethylcarbamoyl)benzyl)piperidin-4-yl)-6-(4-(4-methoxybenzoyl)piperidine-1-carbonyl)nicotinamide] | 1 to 5
16 | N#Cc1ccc(CN2CCC(NC(=O)c3ccc(N4CCN(Cc5ccc(F)cc5)CC4)nn3)CC2)cc1 [Compound 491, N-(1-(4-cyanobenzyl)piperidin-4-yl)-6-(4-(4-fluorobenzyl)piperazin-1-yl)pyridazine-3-carboxamide] | 1 to 5
17 | N#Cc1ccc(CN2CCC(NC(=O)c3ccc(C(=O)N4CCC(Oc5ccc(S(F)(F)(F)(F)F)cc5)CC4)cn3)CC2)cc1 [Compound 492, N-(1-(4-cyanobenzyl)piperidin-4-yl)-5-(4-(4-(pentafluorosulfanyl)phenoxy)piperidine-1-carbonyl)picolinamide] | < 0.5

More lines, now with the values ahead:

Row | EC50 [µM] | SMILES
18 | < 0.5 | COc1ccc(C(=O)C2CCN(C(=O)c3ccc(C(=O)Nc4ccc(Oc5ccc(C#N)cc5)nc4)cn3)CC2)cc1 [Compound 460, N-(6-(4-cyanophenoxy)pyridin-3-yl)-6-(4-(4-methoxybenzoyl)piperidine-1-carbonyl)nicotinamide]
19 | < 0.5 | COc1ccc(C(=O)C2CCN(C(=O)c3ccc(C(=O)Nc4ccc(Oc5ccc(C(C)=O)cc5)nc4)cn3)CC2)cc1 [Compound 462, N-(6-(4-acetylphenoxy)pyridin-3-yl)-6-(4-(4-methoxybenzoyl)piperidine-1-carbonyl)nicotinamide]
20 | < 0.5 | N#Cc1ccc(Oc2ccc(NC(=O)c3ccc(C(=O)N4CCC(C(=O)c5ccc(F)cc5F)CC4)nc3)cn2)cc1 [Compound 463, N-(6-(4-cyanophenoxy)pyridin-3-yl)-6-(4-(2,4-difluorobenzoyl)piperidine-1-carbonyl)nicotinamide]
21 | < 0.5 | CC(=O)c1ccc(Oc2ccc(NC(=O)c3ccc(C(=O)N4CCC(C(=O)c5ccc(F)cc5F)CC4)nc3)cn2)cc1 [Compound 464, N-(6-(4-acetylphenoxy)pyridin-3-yl)-6-(4-(2,4-difluorobenzoyl)piperidine-1-carbonyl)nicotinamide]
22 | < 0.5 | COc1ccc(C(=O)C2CCN(C(=O)c3ccc(C(=O)Nc4ccc(Oc5ccc(S(C)(=O)=O)cc5)nc4)cn3)CC2)cc1 [Compound 465, 6-(4-(4-methoxybenzoyl)piperidine-1-carbonyl)-N-(6-(4-(methylsulfonyl)phenoxy)pyridin-3-yl)nicotinamide]
23 | < 0.5 | CS(=O)(=O)c1ccc(Oc2ccc(NC(=O)c3ccc(C(=O)N4CCC(C(=O)c5ccc(F)cc5F)CC4)nc3)cn2)cc1 [Compound 466, 6-(4-(2,4-difluorobenzoyl)piperidine-1-carbonyl)-N-(6-(4-(methylsulfonyl)phenoxy)pyridin-3-yl)nicotinamide]
24 | < 0.5 | COc1ccc(C(=O)C2CCN(C(=O)c3ccc(C(=O)Nc4ccc(Oc5ccc(C#N)cc5)cn4)cn3)CC2)cc1 [Compound 468, N-(5-(4-cyanophenoxy)pyridin-2-yl)-6-(4-(4-methoxybenzoyl)piperidine-1-carbonyl)nicotinamide]
25 | < 0.5 | N#Cc1ccc(Oc2ccc(NC(=O)c3ccc(C(=O)N4CCC(C(=O)c5ccc(F)cc5F)CC4)nc3)nc2)cc1 [Compound 469, N-(5-(4-cyanophenoxy)pyridin-2-yl)-6-(4-(2,4-difluorobenzoyl)piperidine-1-carbonyl)nicotinamide]
26 | < 0.5 | O=C(NC1CCN(Cc2ccc(OC(F)(F)F)cc2)CC1)c1ccc(C(=O)N2CCC(S(=O)(=O)c3ccc(F)cc3)CC2)nc1 [Compound 470, 6-(4-(4-fluorophenylsulfonyl)piperidine-1-carbonyl)-N-(1-(4-(trifluoromethoxy)benzyl)piperidin-4-yl)nicotinamide]
27 | < 0.5 | N#Cc1ccc(Oc2ccc(NC(=O)c3ccc(C(=O)N4CCN(Cc5ccc(F)cc5)CC4)nc3)cn2)cc1 [Compound 476, N-(6-(4-cyanophenoxy)pyridin-3-yl)-6-(4-(4-fluorobenzyl)piperazine-1-carbonyl)nicotinamide]
28 | < 0.5 | CC(=O)c1ccc(Oc2ccc(NC(=O)c3ccc(C(=O)N4CCN(Cc5ccc(F)cc5)CC4)nc3)cn2)cc1 [Compound 477, N-(6-(4-acetylphenoxy)pyridin-3-yl)-6-(4-(4-fluorobenzyl)piperazine-1-carbonyl)nicotinamide]
29 | < 0.5 | COc1ccc(C(=O)C2CCN(C(=O)c3ccc(C(=O)Nc4ccc(Oc5ccc(C#N)cc5)nc4C)cn3)CC2)cc1 [Compound 478, N-(6-(4-cyanophenoxy)-2-methylpyridin-3-yl)-6-(4-(4-methoxybenzoyl)piperidine-1-carbonyl)nicotinamide]
30 | < 0.5 | Cc1nc(Oc2ccc(C#N)cc2)ccc1NC(=O)c1ccc(C(=O)N2CCC(C(=O)c3ccc(F)cc3F)CC2)nc1 [Compound 479, N-(6-(4-cyanophenoxy)-2-methylpyridin-3-yl)-6-(4-(2,4-difluorobenzoyl)piperidine-1-carbonyl)nicotinamide]
31 | < 0.5 | COc1ccc(C(=O)C2CCN(C(=O)c3ccc(C(=O)Nc4ccc(Oc5ccc(C(=O)N(C)C)cc5)nc4)cn3)CC2)cc1 [Compound 480, N-(6-(4-(dimethylcarbamoyl)phenoxy)pyridin-3-yl)-6-(4-(4-methoxybenzoyl)piperidine-1-carbonyl)nicotinamide]
32 | < 0.5 | CN(C)C(=O)c1ccc(Oc2ccc(NC(=O)c3ccc(C(=O)N4CCC(C(=O)c5ccc(F)cc5F)CC4)nc3)cn2)cc1 [Compound 481, 6-(4-(2,4-difluorobenzoyl)piperidine-1-carbonyl)-N-(6-(4-(dimethylcarbamoyl)phenoxy)pyridin-3-yl)nicotinamide]
